How the values were obtained:
[1] = test system: M(IL-4) polarization of BMDMs; experiment: Flow cytometry of IL-4-associated cell surface markers in BMDMs; assay type: cell-based, mouse
Experimental: For all gene expression and flow cytometry experiments described below, day 6 BMDM were plated at 3×10^5 cell/well in 12-well plates. The next day, cells were treated with appropriate compounds (and duration as indicated in figures and below) in DMEM supplemented with 5% FBS, 2 mM L-glutamine, 100 units/mL, 100 μg/mL penicillin/streptomycin, 500 μM of sodium pyruvate and 5% v/v conditioned media containing macrophage colony stimulating factor (M-CSF).
For flow cytometry experiments involving etomoxir (FIG. 1G, FIG. 2A, FIG. 2D, FIG. 3A, FIG. 3B, FIG. 3G, FIG. 3H): BMDMs were mock-treated (media replacement only) or treated with 20 ng/mL of IL-4±3 μM or 200 μM of etomoxir for 48 hr. When measuring expression of M(IL-4)-associated genes in response to etomoxir (FIG. 1H, FIG. 2B), BMDMs were mock-treated or treated with 20 ng/mL of IL4±etomoxir as indicated for 24 hr.
For experiments involving respiratory chain inhibitors: BMDMs were mock-treated (media replacement only) or treated with 20 ng/mL of IL4±1.2 μM oligomycin (Oligo), 200 nM rotenone (Rot), 200 nM antimycin A (AntiA), 100 nM piericidin A (PierA), or 5 μM carboxyatractylate (CAT) for either 24 (FIG. 4G, FIG. 4H, FIG. 6G) or 48 hr (FIG. 4F, FIG. 7D). All inhibitors were given as co-treatments simultaneously with IL-4.
For experiments involving CoA supplementation (FIG. 10A, FIG. 10B, FIG. 10C, FIG. 10D, FIG. 10E, FIG. 9C, FIG. 9D): BMDMs were mock-treated (media replacement only) or treated with 20 ng/mL of IL4±etomoxir (concentration indicated in figures)±CoA (concentration indicated in figures) for 48 hr. Etomoxir and CoA were given as co-treatments simultaneously with IL-4.
Prior to FACS analysis, BMDMs were detached using 350 μL of Accutase, followed by two washes with FACS buffer (PBS+1% (v/v) BSA+0.05% (w/v) sodium azide). Anti-mouse CD16/32 antibody was used at a dilution of 1:500, while all other antibodies were used at a dilution of 1:250. All flow cytometry data were captured using BD FACSVerse flow cytometer and analyzed using the FlowJo X 10.0.7r2 software. In all, 2×104 live events were acquired for each sample (gated on DAPIneg). For analysis, CD206+/CD71+ and CD206+/CD301+ populations were gated based on Fluorescence Minus One (FMO) controls.

[2] = test system: adenine nucleotide translocase (ANT); experiment: ATP hydrolysis in isolated mitochondria, intact or alamethicin-permeabilized; assay type: biochemical, rat
Description: ATP hydrolysis in isolated mitochondria (McQuaker, S. J., Quinlan, C. L., Caldwell, S. T., Brand, M. D., and Hartley, R. C. (2013). A prototypical small molecule modulator uncouples mitochondria in response to endogenous hydrogen peroxide production. Chembiochem. 14, 993-1000; Divakaruni, A. S., Andreyev, A. Y., Rogers, G. W., and Murphy, A. N. (2017a) In situ measurements of mitochondrial matrix enzyme activities using plasma and mitochondrial membrane permeabilization agents. Anal. Biochem. 17, 30385-8) was performed in MAS buffer, and stimulated by respiratory chain inhibition (1 μM rotenone and 2 μM antimycin A) followed by addition of excess ATP (25 mM) and uncoupler (1 μM FCCP). Hydrolysis was inhibited by injection of either oligomycin (3 ng/mg mitochondrial protein) or carboxyatractylo side (7.5 ng/mg mitochondrial protein). Rates of extracellular acidification (ECAR, in mpH/min) were converted to proton production rates (PPR, in pmol H+/min) by determining the buffer capacity with sequential injections of HCl and H2SO4 (Mookerjee, S. A., Goncalves, R. L., Gerencser, A. A., Nicholls, D. G., and Brand, M. D. (2015). The contributions of respiration and glycolysis to extracellular acid production. Biochim et Biophys Acta. 1847, 171-81). 10 μg/mL alamethicin was used to permeabilize the mitochondrial inner membrane (1 μg/mg mitochondrial protein).

[3] = test system: BMDMs; details: concentrations as high as 100 μM etomoxir; cited from earlier work
[4] = target: T1, CPT-1 (Homo sapiens, UniProt P50416); experiment: Palmitoyl CoA-driven respiration in permeabilized A549 cells; assay type: cell-based; design: endogenous in cells; host or cells: A549 (A6)
T1 sequence (P50416 1-773): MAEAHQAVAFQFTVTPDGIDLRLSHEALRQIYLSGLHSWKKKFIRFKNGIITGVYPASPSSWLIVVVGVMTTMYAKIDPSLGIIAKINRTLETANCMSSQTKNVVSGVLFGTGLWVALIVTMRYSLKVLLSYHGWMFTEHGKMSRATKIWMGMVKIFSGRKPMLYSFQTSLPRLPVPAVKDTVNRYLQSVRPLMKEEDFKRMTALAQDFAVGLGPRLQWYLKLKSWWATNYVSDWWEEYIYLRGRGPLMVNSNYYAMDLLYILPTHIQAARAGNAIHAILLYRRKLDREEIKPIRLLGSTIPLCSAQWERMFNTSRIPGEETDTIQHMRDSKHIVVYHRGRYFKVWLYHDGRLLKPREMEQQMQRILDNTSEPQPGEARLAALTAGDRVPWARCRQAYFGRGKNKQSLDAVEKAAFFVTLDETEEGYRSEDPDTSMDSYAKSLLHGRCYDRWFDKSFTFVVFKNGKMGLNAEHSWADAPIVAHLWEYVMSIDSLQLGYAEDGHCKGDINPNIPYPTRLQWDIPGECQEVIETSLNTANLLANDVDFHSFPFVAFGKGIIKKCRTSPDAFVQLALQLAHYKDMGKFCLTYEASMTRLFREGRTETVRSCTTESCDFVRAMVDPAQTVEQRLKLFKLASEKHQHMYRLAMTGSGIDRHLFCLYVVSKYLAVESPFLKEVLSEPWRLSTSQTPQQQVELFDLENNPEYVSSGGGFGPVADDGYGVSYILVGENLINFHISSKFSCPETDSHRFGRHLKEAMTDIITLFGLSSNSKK

CCOC(=O)[C@@]1(CCCCCCOc2ccc(Cl)cc2)CO1 [etomoxir]
CD206+/CD71+ expression in WT and Cpt1a-/- macrophages ([1]; 3 μM etomoxir): lack of an effect | expression levels of IL-4-induced CD206, CD71, CD301 ([1]; 3 μM etomoxir, IL-4 20 ng/mL): no effect | CD206+/CD71+ expression in WT and Cpt1a-/- macrophages ([1]; 200 μM etomoxir): robust block | population of CD206+/CD71+ cells ([1]; 200 μM etomoxir, IL-4): strongly reduced | population of CD301+ cells ([1]; 200 μM etomoxir, IL-4): little effect | population of CD206+/CD71+ cells ([1]; 500 μM CoA, etomoxir 3-100 μM): proportionally decreased | concentration at which significant changes in macrophage polarization were observed ([1]; CD206+/CD71+, IL-4): > 100 µM | ATP hydrolysis ([2]; alamethicin-permeabilized mitochondria): no effect | ATP hydrolysis ([2]; intact isolated mitochondria, etomoxir 100 μM, CAT 7.5 ng/mg, oligomycin 3 ng/mg): inhibited ATP hydrolysis | respiration in BMDMs [3]: lack of significant changes in respiration | EC50, FCCP-stimulated palmitoyl CoA-driven respiration [4]: nanomolar | concentration of saturable effect [4]: less than 3 μM

— US11813277B2, “Methods and agents for modulating inflammation” (The Regents of the University of California, priority 2018, dated 2023)
